Measurements published in US20220408724A1, “METHOD FOR CONTROLLING METABOLISM OF BRANCHED FATTY ACID” (KAO CORPORATION, priority 2019, published 2022).
“And” between values parts separate entries of the source, which are not always exact repeats. Identical values can stand only once.

Key:
Assay type in all cases: cell-based
Micrococcus aloeverae [1] = assay: Suppression of metabolism of 14-methylhexadecanoic acid on cotton fabric
Method: (§1) A methanol solution in which 14-methylhexadecanoic acid (SIGMA-ALDRICH) was dissolved was added dropwise to 3 cm×3 cm pieces of sterilized plain-weave cotton fabric to make it adhered to the fabric. The adhesion amount of 14-methylhexadecanoic acid was set to 10 μg per piece of the plain-weave cotton fabric (100 μg/fabric g).
(§2) Further, a methanol solution in which each metabolism controlling agent was dissolved was prepared and added dropwise to the fabric to which 14-methylhexadecanoic acid adhered, and it was thereafter dried for an hour. This fabric was placed in a sterilized screw tube bottle No. 3 (Maruemu Corporation) and 100 μl of the bacterial suspension was inoculated thereto, and culture was carried out under 37° C.; conditions for 21 hours.
(§3) 3 ml of methanol was added to the screw tube bottle after culture, and extraction was carried out under ultrasonic irradiation for 30 minutes (20° C.). The extraction liquid was mixed with a (trimethylsilyl)diazomethane hexane solution (FUJIFILM Wako Pure Chemical Corporation) at 9:1 (volume ratio) and left overnight under room temperature and dark place conditions. After that, 14-methylhexadecanoic acid remaining on the fabric was quantified by GC. The quantification conditions for GC are as follows. • GC: Agilent 7890A • GC column: Agilent DB-1 30 m×250 μm×0.25 μm • Temperature rise condition: 50° C. (held for 3 minutes)-(10° C./min)-300° C. (held for 5 minutes) • Sample injection volume: 1 μl • Split ratio: 1:12 • Detector: FID
(§4) The residual amount of 14-methylhexadecanoic acid after culture on the fabric to which the metabolism controlling agent was added was quantified, and the ratio of the residual amount to that of 14-methylhexadecanoic acid in the case of adding no metabolism controlling agent (control) was calculated as a metabolism suppression rate (%). The higher a numerical value thereof is, the more the metabolism is suppressed. Note that the metabolism suppression rate was determined by the following formula:
(§5) Metabolism suppression rate(%)=[1−(100−A)/(100−B)]×100 • A: residual amount of 14-methylhexadecanoic acid of example or comparative example (μg/fabric g) • B: residual amount of 14-methylhexadecanoic acid of control (μg/fabric g)
(§6) The metabolism of 14-methylhexadecanoic acid by bacteria of the genus Micrococcus was tested in the same manner as in example 1.
(§7) In this example, Micrococcus aloeverae (strain isolated from clothing) was used as a microorganism.
(§8) Further, in this example, a bacterial suspension of 10^7 (CFU/ml) prepared by using an SCD liquid medium (NIHON PHARMACEUTICAL CO., LTD.) diluted to 1/10 with ion exchange water was used as a bacterial suspension.
(§9) Note that, in this example, C12OH (1-dodecanol) was used as the metabolism controlling agent.

Moraxella osloensis = assay: Examination example: suppression of metabolism of 14-methylhexadecanoic acid, components (a) and (b)/(b′); details: single agent 100 μg/fabric g
Method: The suppression of metabolism of 14-methylhexadecanoic acid by bacteria of the genus Moraxella and the suppression of a metabolite therefrom were tested in the following manner.
Moraxella osloensis (strain isolated from clothing) was precultured on an SCD-LP agar medium (NIHON PHARMACEUTICAL CO., LTD.) at 37° C.; for 24 hours, and a bacterial suspension of 10^6 (CFU/ml) was prepared by using an NB liquid medium (Difco) diluted to 1/20 with ion exchange water.
A methanol solution in which 14-methylhexadecanoic acid (SIGMA-ALDRICH) was dissolved was added dropwise to 3 cm×3 cm pieces of sterilized plain-weave cotton fabric to make it adhered to the fabric. The adhesion amount of 14-methylhexadecanoic acid was set to 10 μg per piece of the plain-weave cotton fabric (100 μg/fabric g). Further, a methanol solution in which component (a) was dissolved, and then, a methanol solution in which component (b) or (b′) was dissolved were added dropwise to the fabric to which 14-methylhexadecanoic acid adhered, and it was thereafter dried for an hour. This fabric was placed in a sterilized screw tube bottle No. 3 (Maruemu Corporation) and 100 μl of the bacterial suspension was inoculated thereto, and culture was carried out under 37° C.; conditions for 21 hours.
as §3, with “6890N” for “7890A”
as §4, with “which each” for “which the”
Metabolism suppression rate(%)=[1−(100−A)/(100−B)]×100 • A: residual amount of 14-methylhexadecanoic acid of reference or examination example (μg/fabric g) • B: residual amount of 14-methylhexadecanoic acid of control (μg/fabric g)
A control is an example in which none of component (a), (b) or (b′) is added, and references 1-1, 2-1, 3-1 and 4-1 qualify as this (the same applies hereinafter). In these controls, the metabolism suppression rate is 0′.

Rhodotorula mucilaginosa = assay: Suppression of metabolism of 14-methylhexadecanoic acid on cotton fabric; details: agent 250 μg/fabric g
Method: as §1, §2, §3, §4, §5
The metabolism of 14-methylhexadecanoic acid by yeast of the genus Rhodotorula was tested in the same manner as in example 1.
In this example, Rhodotorula mucilaginosa (strain isolated from clothing) was used as a microorganism.
Further, in this example, the bacteria were precultured under conditions of a PDA agar medium (Difco), 30° C.; and 48 hours.
Further, in this example, a bacterial suspension of 10^7 (CFU/ml) prepared by using a PDB liquid medium (Difco) diluted to 1/10 with ion exchange water was used as a bacterial suspension.

Micrococcus aloeverae [2] = assay: Measurement of viable bacterial count on fabric
Method: After culture on fabric prepared in the same manner as in the above (1), 9 mL of an LP diluent (manufactured by NIHON PHARMACEUTICAL CO., LTD.) was added, and the extraction of the bacteria was carried out under ultrasound for 10 minutes. The extraction liquid was poured and mixed to an SCD-LP agar medium (NIHON PHARMACEUTICAL CO., LTD.), and culture was thereafter carried out at 37° C.; for a day. The number of colonies obtained on each piece of the fabric was counted, and a common logarithm value thereof was measured as the viable bacterial count. […] In addition, the […], the more the viable bacterial count of the microorganism is maintained.
as §6, §7, §8, §9

**Q.** For `CCCCCCCCCCCCO` [Example C12OH, 1-dodecanol], which “Metabolism suppression rate (%)” value (Micrococcus aloeverae [1]; agent 100 μg/fabric g) is on record?
**A.** 16.7%

**Q.** What about the “Metabolism suppression rate (%)” value (Micrococcus aloeverae [1]; agent 250 μg/fabric g) of the same compound?
**A.** 73% and 55.0%

**Q.** And the “Metabolism suppression rate (%)” value (Micrococcus aloeverae [1]; agent 500 μg/fabric g)?
**A.** 85.8%

**Q.** What about the “Metabolism suppression rate (%)” value (Micrococcus aloeverae [1]; agent 1000 μg/fabric g) of the same compound?
**A.** 86.9%

**Q.** What about the “Metabolism of branched fatty acid: Residual amount (μg/fabric g)” value (Moraxella osloensis; 14-methylhexadecanoic acid) of the same compound?
**A.** 59 μg/fabric g

**Q.** And the “Metabolism of branched fatty acid: Metabolism suppression rate (%)” value (Moraxella osloensis)?
**A.** 33%

**Q.** And the “Metabolism suppression rate (%)” value (Rhodotorula mucilaginosa)?
**A.** 68%

**Q.** And the “Bacterial count (Log (cfu/fabric cm^2))” value (Micrococcus aloeverae [2]; agent 100 μg/fabric g)?
**A.** 6.5 Log (cfu/fabric cm^2)

**Q.** What about the “Bacterial count (Log (cfu/fabric cm^2))” value (Micrococcus aloeverae [2]; agent 500 μg/fabric g) of the same compound?
**A.** 5.6 Log (cfu/fabric cm^2)

**Q.** And the “Bacterial count (Log (cfu/fabric cm^2))” value (Micrococcus aloeverae [2]; agent 1000 μg/fabric g)?
**A.** 5.6 Log (cfu/fabric cm^2)
